Laboratory results as given in US11000033B2, “Ketone or oxime compound, and herbicide” (NISSAN CHEMICAL CORPORATION, priority 2014, dated 2021).

Experiments:
Assay type in all cases: in vivo
[1] = system: wheat; test: Test Example 5: effect on crop by foliage application, plastic box (symbol e); settings: 320 g/ha, 3 weeks after application
Method in brief: (§1)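 Diluvial soil, sterilized and boxed (21 × 13 × 7 cm), received spot-sown seed covered by about 1.5 cm soil; plants were then greenhouse-grown at 25–30° C.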

[2] = system: Echinochloa oryzacola Vasing.; test: Test Example 1: herbicidal activity, application before weed generation in submerged conditions (symbol A); settings: application herbicide amount 320 g/ha
Method in brief: (§2)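 Paddy pre-emergence test. Formulated emulsion, water-diluted to a predetermined rate, is applied to floodwater on sowing day; rice transplanted at 2.5 leaves. Effect read at 3 weeks on a 0–5 herbicidal-ratio scale.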

[3] = system: Lolium multiflorum Lam.; test: Test Example 4: herbicidal effect by soil treatment (symbol K)
Method in brief: (§3)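 Seeds were sown in sterilized diluvial soil, covered with about 1.5 cm of soil, and the soil surface was sprayed with a water-diluted emulsion of the compound at a predetermined rate. Plants grew in a greenhouse at 25° C. to 30° C.; effects were scored visually 3 weeks after application.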

[4] = system: wheat; test: Test Example 4: effect on crop by soil treatment (symbol e)
Method in brief: (§4)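 Crop seeds, among them rice, wheat, beet and rapeseed, were sown in sterilized diluvial soil and covered with about 1.5 cm of soil. Boxes were kept in a greenhouse at 25° C. to 30° C. for plant growth.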

[5] = system: Leptochloa chinensis; test: Test Example 3: herbicidal effect by foliage application, Wagner pot (symbol D); settings: application herbicide amount 320 g/ha
Method in brief: (§5)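 Rating at 3 weeks post-spray, by defined criteria. Treatment: emulsion diluted with water to a predetermined amount, applied evenly to foliage of 14-day-old plants raised in alluvial soil flooded 0.1–0.5 cm deep at 25–30 °C, rice co-sown.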

[6] = system: Amaranthus retroflexus; test: Test Example 4: herbicidal effect by soil treatment (symbol N)
Method in brief: as §3

[7] = system: Avena fatua; test: Test Example 5: herbicidal effect by foliage application, plastic box (symbol I); settings: 320 g/ha, 3 weeks after application
Method in brief: (§6)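 Visual herbicidal score, taken three weeks post-application, of seedlings sprayed on the foliage with water-diluted emulsion at a predetermined amount; plants were 14 days old, greenhouse-raised at 25° C. to 30° C.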

[8] = system: rice; test: Test Example 4: effect on crop by soil treatment (symbol b)
Method in brief: as §4

[9] = system: Cyperus difformis; test: Test Example 3: herbicidal effect by foliage application, Wagner pot (symbol E); settings: application herbicide amount 320 g/ha
Method in brief: as §5

[10] = system: rice plant; test: Test Example 5: effect on crop by foliage application, plastic box (symbol b); settings: 320 g/ha, 3 weeks after application
Method in brief: as §1

[11] = system: Apera spica-venti; test: Test Example 5: herbicidal effect by foliage application, plastic box (symbol L); settings: 320 g/ha, 3 weeks after application
Method in brief: as §6

[12] = system: rapeseed; test: Test Example 4: effect on crop by soil treatment (symbol g)
Method in brief: as §4

[13] = system: Galium spurium; test: Test Example 4: herbicidal effect by soil treatment (symbol Q)
Method in brief: as §3

[14] = system: beet; test: Test Example 4: effect on crop by soil treatment (symbol f)
Method in brief: as §4

[15] = system: Monochoria vaginalis; test: Test Example 1: herbicidal activity, application before weed generation in submerged conditions (symbol C); settings: application herbicide amount 320 g/ha
Method in brief: as §2

[16] = system: Chenopodium album; test: Test Example 4: herbicidal effect by soil treatment (symbol O)
Method in brief: as §3

[17] = system: Chenopodium album; test: Test Example 5: herbicidal effect by foliage application, plastic box (symbol O); settings: 320 g/ha, 3 weeks after application
Method in brief: as §6

[18] = system: Abutilon theophrasti; test: Test Example 5: herbicidal effect by foliage application, plastic box (symbol M); settings: 320 g/ha, 3 weeks after application
Method in brief: as §6

[19] = system: Stellaria media; test: Test Example 5: herbicidal effect by foliage application, plastic box (symbol P); settings: 320 g/ha, 3 weeks after application
Method in brief: as §6

[20] = application herbicide amount 320 g/ha

CON=C(C)CC1CC(OC(=O)C(C)(C)C)=C(c2c(C)cc(C)cc2C)C1=O (stereo not drawn) [1-004, 2-mesityl-4-{2-(methoxyimino)propyl}-3-oxocyclopent-1-en-1-yl pivalate]
e: wheat, effect on crop grade [1]: 5 (Herbicidal ratio of 90% or more (almost completely withered))
Herbicidal effect grade, A: Echinochloa oryzacola Vasing. [2]: 5 (Herbicidal ratio of 90% or more (almost completely withered))
K (Lolium multiflorum Lam.) herbicidal effect grade [3, 20]: 5 (Herbicidal ratio of 90% or more (almost completely withered))
e (wheat) effect on crop grade [4, 20]: 3 (Herbicidal ratio of 40% or higher and lower than 70%)
herbicidal effect on D (Leptochloa chinensis), grade 0-5 [5]: 5 (Herbicidal ratio of 90% or more (almost completely withered))
N (Amaranthus retroflexus) herbicidal effect grade [6, 20]: 5 (Herbicidal ratio of 90% or more (almost completely withered))
I: Avena fatua, herbicidal effect grade [7]: 5 (Herbicidal ratio of 90% or more (almost completely withered))
b (directly sowed rice plant) effect on crop grade [8, 20]: 5 (Herbicidal ratio of 90% or more (almost completely withered))
herbicidal effect on E, grade 0-5 [9]: 5 (Herbicidal ratio of 90% or more (almost completely withered))
b: directly sowed rice plant, effect on crop grade [10]: 5 (Herbicidal ratio of 90% or more (almost completely withered))
L: Apera spica-venti, herbicidal effect grade [11]: 5 (Herbicidal ratio of 90% or more (almost completely withered))
g (rapeseed) effect on crop grade [12, 20]: 4 (Herbicidal ratio of 70% or higher and lower than 90%)
Q (Galium spurium) herbicidal effect grade [13, 20]: 0 (Herbicidal ratio of 5% or lower (almost no effect))
f (beet) effect on crop grade [14, 20]: 4 (Herbicidal ratio of 70% or higher and lower than 90%)
Herbicidal effect grade, C: Monochoria vaginalis [15]: 4 (Herbicidal ratio of 70% or higher and lower than 90%)
O (Chenopodium album) herbicidal effect grade [16, 20]: 0 (Herbicidal ratio of 5% or lower (almost no effect))
O: Chenopodium album, herbicidal effect grade [17]: 3 (Herbicidal ratio of 40% or higher and lower than 70%)
M: Abutilon theophrasti, herbicidal effect grade [18]: 4 (Herbicidal ratio of 70% or higher and lower than 90%)

CC(CC1CC(O)=C(c2c(C)cc(C)cc2C)C1=O)=NOCC(C)Br (stereo not drawn) [1-135]
e: wheat, effect on crop (criteria 0-5) [1]: 2 (Herbicidal ratio of 20% or higher and lower than 40%)
Herbicidal effect grade, A: Echinochloa oryzacola Vasing. [2]: 5 (Herbicidal ratio of 90% or more (almost completely withered))
K: Lolium multiflorum Lam., herbicidal effect grade ([3]; 320 g/ha): 5 (Herbicidal ratio of 90% or more (almost completely withered))
e: wheat, effect grade on crop ([4]; 320 g/ha): 0 (Herbicidal ratio of 5% or lower (almost no effect))
herbicidal effect on D (Leptochloa chinensis), grade 0-5 [5]: 4 (Herbicidal ratio of 70% or higher and lower than 90%)
N: Amaranthus retroflexus, herbicidal effect grade ([6]; 320 g/ha): 0 (Herbicidal ratio of 5% or lower (almost no effect))
I: Avena fatua, herbicidal effect (criteria 0-5) [7]: 5 (Herbicidal ratio of 90% or more (almost completely withered))
b: directly sowed rice plant, effect grade on crop ([8]; 320 g/ha): 5 (Herbicidal ratio of 90% or more (almost completely withered))
P: Stellaria media, herbicidal effect (criteria 0-5) [19]: 1 (Herbicidal ratio of 5% or higher and lower than 20%)
b: directly sowed rice plant, effect on crop (criteria 0-5) [10]: 5 (Herbicidal ratio of 90% or more (almost completely withered))
L: Apera spica-venti, herbicidal effect (criteria 0-5) [11]: 5 (Herbicidal ratio of 90% or more (almost completely withered))
g: rapeseed, effect grade on crop ([12]; 320 g/ha): 2 (Herbicidal ratio of 20% or higher and lower than 40%)
Q: Galium spurium, herbicidal effect grade ([13]; 320 g/ha): 0 (Herbicidal ratio of 5% or lower (almost no effect))
f: beet, effect grade on crop ([14]; 320 g/ha): 0 (Herbicidal ratio of 5% or lower (almost no effect))
Herbicidal effect grade, C: Monochoria vaginalis [15]: 1 (Herbicidal ratio of 5% or higher and lower than 20%)
O: Chenopodium album, herbicidal effect grade ([16]; 320 g/ha): 0 (Herbicidal ratio of 5% or lower (almost no effect))
O: Chenopodium album, herbicidal effect (criteria 0-5) [17]: 5 (Herbicidal ratio of 90% or more (almost completely withered))
M: Abutilon theophrasti, herbicidal effect (criteria 0-5) [18]: 3 (Herbicidal ratio of 40% or higher and lower than 70%)
